In PubChem BioAssay AID1963971 (Molecular Pharmacology Branch, DTP, NCI, 2024):

Tested on: 953936-095-R-J2-PDC spheroids with HUVEC/MSC, viability
Test: Anticancer human tumor 953936-095-R-J2-PDC patient-derived cervical squamous cell carcinoma cell line growth inhibition [PI3K]
Settings: for IC50: curve of first compound; for viability, T/C: stronger effect = lower value
Summary of the method: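 Targeted small molecules plus PI3K inhibitors, half-log dose series from Cmax (default top 10 microM), were applied to heterotypic spheroids of cancer cells with HUVEC and MSCs. Viability indicated growth inhibition.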

[1] = second compound 0.00316 µM, first compound 0.0316 µM
[2] = second compound 0.00316 µM, first compound 0.1 µM
[3] = second compound 0.00316 µM, first compound 0.316 µM
[4] = second compound 0.00316 µM, first compound 1 µM
[5] = second compound 0.00316 µM, first compound 3.16 µM
[6] = second compound 0.00316 µM, first compound 10 µM
[7] = second compound 0.01 µM, first compound 0.0316 µM
[8] = second compound 0.01 µM, first compound 0.1 µM
[9] = second compound 0.01 µM, first compound 0.316 µM
[10] = second compound 0.01 µM, first compound 1 µM
[11] = second compound 0.01 µM, first compound 3.16 µM
[12] = second compound 0.01 µM, first compound 10 µM
[13] = second compound 0.0316 µM, first compound 0.0316 µM
[14] = second compound 0.0316 µM, first compound 0.1 µM
[15] = second compound 0.0316 µM, first compound 0.316 µM
[16] = second compound 0.0316 µM, first compound 1 µM
[17] = second compound 0.0316 µM, first compound 3.16 µM
[18] = second compound 0.0316 µM, first compound 10 µM
[19] = second compound 0.1 µM, first compound 0.0316 µM
[20] = second compound 0.1 µM, first compound 0.1 µM
[21] = second compound 0.1 µM, first compound 0.316 µM
[22] = second compound 0.1 µM, first compound 1 µM
[23] = second compound 0.1 µM, first compound 3.16 µM
[24] = second compound 0.1 µM, first compound 10 µM
[25] = second compound 0.316 µM, first compound 0.0316 µM
[26] = second compound 0.316 µM, first compound 0.1 µM
[27] = second compound 0.316 µM, first compound 0.316 µM
[28] = second compound 0.316 µM, first compound 1 µM
[29] = second compound 0.316 µM, first compound 3.16 µM
[30] = second compound 0.316 µM, first compound 10 µM
[31] = second compound 1 µM, first compound 0.0316 µM
[32] = second compound 1 µM, first compound 0.1 µM
[33] = second compound 1 µM, first compound 0.316 µM
[34] = second compound 1 µM, first compound 1 µM
[35] = second compound 1 µM, first compound 3.16 µM
[36] = second compound 1 µM, first compound 10 µM
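Further: spheroids exposed to compounds for seven days before read-out.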

`C=CC(=O)N1CCN(c2nc(=O)n(-c3c(C)ccnc3C(C)C)c3nc(-c4c(O)cccc4F)c(F)cc23)C(C)C1` (centres undefined) + COc1c(OCCCN2CCOCC2)ccc2c3n(c(=NC(=O)c4cnc(N)nc4)nc12)CCN3 was tested, and the IC50 (second compound 0.00316 µM) was > 10000 nM, the IC50 (second compound 0.01 µM) was > 10000 nM and the IC50 (second compound 0.0316 µM) was < 31.6 nM. For the same molecule, the IC50 (second compound 0.1 µM) was < 31.6 nM, the IC50 (second compound 0.316 µM) was < 31.6 nM and the IC50 (second compound 1 µM) was < 31.6 nM. For the same molecule, the viability, T/C [1] was 88.7%, the viability, T/C [2] was 91% and the viability, T/C [3] was 108%. It also gave a viability, T/C [4] of 106%, a viability, T/C [5] of 101% and a viability, T/C [6] of 93.1%. It also gave a viability, T/C [7] of 72.8%, a viability, T/C [8] of 79% and a viability, T/C [9] of 79.3%. It also gave a viability, T/C [10] of 84%, a viability, T/C [11] of 89.9% and a viability, T/C [12] of 91.9%. For the same molecule, the viability, T/C [13] was 41.4%, the viability, T/C [14] was 43.6% and the viability, T/C [15] was 44.4%. It also gave a viability, T/C [16] of 46%, a viability, T/C [17] of 51.2% and a viability, T/C [18] of 45.1%. It also gave a viability, T/C [19] of 18.6%, a viability, T/C [20] of 18.4% and a viability, T/C [21] of 18.4%. For the same molecule, the viability, T/C [22] was 20.2%, the viability, T/C [23] was 20.4% and the viability, T/C [24] was 15.2%. For the same molecule, the viability, T/C [25] was 7.53%, the viability, T/C [26] was 7.13% and the viability, T/C [27] was 6.33%. For the same molecule, the viability, T/C [28] was 6.9%, the viability, T/C [29] was 6.5% and the viability, T/C [30] was 3.82%. The viability, T/C [31] was 1.94%, the viability, T/C [32] was 1.84% and the viability, T/C [33] was 1.67%. The viability, T/C [34] was 1.83%, the viability, T/C [35] was 1.85% and the viability, T/C [36] was 1.04%.

In the case of `CC(C)NCC(C(=O)N1CCN(c2ncnc3c2C(C)CC3O)CC1)c1ccc(Cl)cc1` (centres undefined) + COc1c(OCCCN2CCOCC2)ccc2c3n(c(=NC(=O)c4cnc(N)nc4)nc12)CCN3, the IC50 (second compound 0.00316 µM) is reported as 793 nM, the IC50 (second compound 0.01 µM) is reported as 537 nM and the IC50 (second compound 0.0316 µM) is reported as < 31.6 nM. For the same molecule, the IC50 (second compound 0.1 µM) was < 31.6 nM, the IC50 (second compound 0.316 µM) was < 31.6 nM and the IC50 (second compound 1 µM) was < 31.6 nM. It also gave a viability, T/C [1] of 80.9%, a viability, T/C [2] of 85.2% and a viability, T/C [3] of 66.5%. It also gave a viability, T/C [4] of 46.5%, a viability, T/C [5] of 21% and a viability, T/C [6] of 11.6%. For the same molecule, the viability, T/C [7] was 68.9%, the viability, T/C [8] was 69.2% and the viability, T/C [9] was 62.2%. For the same molecule, the viability, T/C [10] was 35.6%, the viability, T/C [11] was 16.6% and the viability, T/C [12] was 9.89%. For the same molecule, the viability, T/C [13] was 44.4%, the viability, T/C [14] was 38.5% and the viability, T/C [15] was 35.7%. It also gave a viability, T/C [16] of 24%, a viability, T/C [17] of 12.2% and a viability, T/C [18] of 6.65%. The viability, T/C [19] was 18.9%, the viability, T/C [20] was 16.4% and the viability, T/C [21] was 16.3%. For the same molecule, the viability, T/C [22] was 12.4%, the viability, T/C [23] was 6.76% and the viability, T/C [24] was 3.98%. It also gave a viability, T/C [25] of 6.59%, a viability, T/C [26] of 6.54% and a viability, T/C [27] of 5.22%. It also gave a viability, T/C [28] of 4.04%, a viability, T/C [29] of 2.93% and a viability, T/C [30] of 1.71%. For the same molecule, the viability, T/C [31] was 1.44%, the viability, T/C [32] was 2.11% and the viability, T/C [33] was 1.2%. The viability, T/C [34] was 1.24%, the viability, T/C [35] was 0.83% and the viability, T/C [36] was 0.81%.
